Test results from PubChem BioAssay (NCI).
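96-well plates; 48 h exposure; 5 concentrations. Endpoints by linear interpolation between flanking doses. Not reached: highest tested concentration assigned. TGI denotes the concentration required for complete inhibition of growth.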

Assays:
Assay in all cases: inhibition of tumour cell growth, NCI panel, 48 h
[1] = test system: HOP-62 NSCLC
[2] = test system: OVCAR-5 ovarian
[3] = test system: T-47D breast
[4] = test system: SN12C renal
[5] = test system: HCC-2998 colon
[6] = test system: SF-539 CNS
[7] = test system: RXF 393 renal
[8] = test system: HS 578T breast
[9] = test system: CAKI-1 renal
[10] = test system: HT29 colon
[11] = test system: OVCAR-4 ovarian
[12] = test system: RPMI-8226 leukemia
[13] = test system: SF-268 CNS
[14] = test system: HOP-92 NSCLC
[15] = test system: OVCAR-3 ovarian

| Compound | TGI [1] [µM] | TGI [2] [µM] | TGI [3] [µM] | TGI [4] [µM] | TGI [5] [µM] | TGI [6] [µM] | TGI [7] [µM] | TGI [8] [µM] | TGI [9] [µM] | TGI [10] [µM] | TGI [11] [µM] | TGI [12] [µM] | TGI [13] [µM] | TGI [14] [µM] | TGI [15] [µM] |
| --- | --- | --- | --- | --- | --- | --- | --- | --- | --- | --- | --- | --- | --- | --- | --- |
| CN(C1=NCCO1)c1cccc2c1CCCC2 | > 10 | > 10 | > 10 | > 10 | > 10 | > 10 | > 10 | > 10 | > 10 | 5.2 | 7.78 | > 10 | > 10 | – | – |
| COc1ccc2[nH]c3c(c2c1)COc1ccccc1C3=O | > 100 | > 100 | > 100 | > 100 | > 100 | > 100 | – | > 100 | > 100 | > 100 | > 100 | > 100 | > 100 | > 100 | > 100 |
| c1cncc(-c2ncc3cccnc3n2)c1 | > 100 | > 100 | – | > 100 | > 100 | > 100 | > 100 | > 100 | > 100 | > 100 | > 100 | > 100 | – | > 100 | > 100 |
| O=C(CCc1cccc(O)c1)NCCc1ccc(O)cc1 | > 100 | > 100 | > 100 | > 100 | – | > 100 | > 100 | > 100 | > 100 | > 100 | > 100 | – | > 100 | > 100 | > 100 |
| CCOC(=O)CCC(NC(=O)Cc1ccc(Oc2nc3ccccc3nc2-c2cccs2)cc1)C(=O)OCC (centres undefined) | 11.8 | > 100 | – | > 100 | > 100 | 26.3 | 27.5 | 81.1 | > 100 | > 100 | 94 | > 100 | 12.6 | 47.7 | 29.2 |
| C=C1c2nc3ccccc3n2C=C(c2ccccc2)N1c1ccccc1 | – | > 100 | – | > 100 | 28.8 | > 100 | > 100 | – | > 100 | – | > 100 | > 100 | – | > 100 | > 100 |
| NS(=O)(=O)c1ccc(CNc2nc(-c3cccs3)nc3ccc(I)cc23)cc1 | 49.9 | 44.4 | 1.81 | 57.7 | 27.7 | 30.8 | 43.5 | – | 22.8 | 39.2 | 60.5 | 49.5 | 61.6 | 54.4 | 30.1 |
| CCOC(=O)[C@@]12CCC(C1=O)[C@](C)(O)C[C@@H]2c1ccccc1 | > 100 | > 100 | > 100 | 72.3 | – | > 100 | > 100 | 61.7 | > 100 | 73.2 | > 100 | – | > 100 | > 100 | 84 |
